Measurements as given in EP4786455A1, “NOVEL PHTHALAZINE DERIVATIVE COMPOUND AS SOS1 INHIBITOR, AND USE THEREOF” (Hanmi Pharmaceutical Co., Ltd., priority 2023, dated 2025).

Each compound was assayed against T1, SOS1 (Homo sapiens, UniProt Q07889) (assay: Inhibitory activity on SOS1-mediated GTP exchange (HTRF / TR-FRET nucleotide exchange assay on KRAS G12C)). Details: SOS1-mediated GTP exchange on GST-KRAS G12C (residues 2-169); SOS1-Strep catalytic domain (564-1049); GTP-DY-647P1; HTRF signal; 5-point concentration series up to 1,000 nM.
T1 construct: comprising amino acid residues 564-1049 corresponding to the catalytic domain; purchased Reaction Biology Corp. SOS1-Strep #MSC-11-502; GST-KRAS G12C #MSC-11-538
T1 sequence (Q07889 564-1049): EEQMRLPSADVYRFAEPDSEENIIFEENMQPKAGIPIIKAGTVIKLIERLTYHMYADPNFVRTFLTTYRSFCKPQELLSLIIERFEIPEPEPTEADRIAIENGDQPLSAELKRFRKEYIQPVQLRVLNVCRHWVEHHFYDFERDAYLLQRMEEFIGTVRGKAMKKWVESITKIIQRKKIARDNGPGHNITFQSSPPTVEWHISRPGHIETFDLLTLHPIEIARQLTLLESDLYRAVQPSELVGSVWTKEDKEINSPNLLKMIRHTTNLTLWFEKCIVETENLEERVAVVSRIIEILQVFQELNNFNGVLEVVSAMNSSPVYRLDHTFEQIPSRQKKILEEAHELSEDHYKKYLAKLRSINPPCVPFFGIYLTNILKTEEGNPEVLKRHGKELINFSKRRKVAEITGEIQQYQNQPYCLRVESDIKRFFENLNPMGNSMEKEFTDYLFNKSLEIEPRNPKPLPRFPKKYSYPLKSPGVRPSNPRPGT
Format: biochemical
Procedure: To evaluate whether the SOS1-mediated nucleotide exchange activity on KRAS G12C is inhibited by the compounds of the above Examples, a homogeneous time-resolved fluorescence (homogenous time-resolved fluorescence, HTRF) assay was performed using GST-KRAS G12C (#MSC-11-538) and SOS1-Strep (#MSC-11-502) obtained from Reaction Biology Corp. (USA, MA). The activity of SOS1 was determined by measuring the amount of GTP bound to the KRAS G12C protein based on the principle of time-resolved fluorescence resonance energy transfer (time-resolved fluorescence energy transfer, TR-FRET). Terbium (Terbium) conjugated to an anti-GST antibody bound to the GST tag of the GST-KRAS G12C protein served as a FRET donor, and GTP bound to the KRAS G12C protein was labeled with the fluorophore DY-647P1, serving as a FRET acceptor. Based on this principle, a higher HTRF or FRET signal is observed as more GTP is bound to KRAS G12C due to the SOS1-mediated exchange reaction in the assay.
In summary, a GST-labeled KRAS G12C protein (comprising amino acid residues 2-169), a […] SOS1 protein (comprising amino acid residues 564-1049 corresponding to the catalytic domain), an anti-GST antibody, labeled nucleotide GTP-DY-647P1, and the test compound were mixed in a buffer solution containing 20 mM HEPES (pH 7.4), 150 mM NaCl, 5 mM MgCl2, 1 mM dithiothreitol (DTT), 0.05% BSA, and 0.0025% NP40. The mixture was dispensed into a 384-well plate, incubated at room temperature, and the HTRF signal was measured using a PHERAstar microplate reader (BMG Labtech). The excitation wavelength was 337 nm, and emission was measured at 620/665 nm. A background signal value was determined from fluorescence measurements obtained in the absence of SOS1 protein and was subtracted from all measured HTRF values. A control value was determined from fluorescence measurements obtained in the absence of the synthesized compounds and was set as the 100% reference. Fluorescence signals were measured at compound concentrations of 0.1, 1, 10, 100, and 1,000 nM (5 points, 10-fold) or 1.6, 8, 40, 200, and 1,000 nM (5 points, 5-fold). The 50% inhibitory concentration (IC50) values of the compounds were calculated using GraphPad Prism.
IC50 values were denoted as +++ when 50 nM or less, ++ when greater than 50 nM and 100 nM or less, and + when greater than 100 nM.

IC50, ≤ 50 nM:
CNc1cc2c(N[C@H](C)c3cccc(C#N)c3C)nnc(C)c2cc1C(=O)N1CCOCC1 [Example 1, (R)-2-methyl-3-(1-((4-methyl-7-(methylamino)-6-(morpholine-4-carbonyl)phthalazin-1-yl)amino)ethyl)benzonitrile]
CNc1cc2c(N[C@H](C)c3cccc(C#N)c3C)nnc(C)c2cc1C(=O)N1CCSCC1 [Example 2, (R)-2-methyl-3-(1-((4-methyl-7-(methylamino)-6-(thiomorpholine-4-carbonyl)phthalazin-1-yl)amino)ethyl)benzonitrile]
CNc1cc2c(N[C@H](C)c3cccc(C#N)c3C)nnc(C)c2cc1C(=O)N1CCSC1 [Example 3, (R)-2-methyl-3-(1-((4-methyl-7-(methylamino)-6-(thiazolidine-3-carbonyl)phthalazin-1-yl)amino)ethyl)benzonitrile]
CNc1cc2c(N[C@H](C)c3cccc(C#N)c3C)nnc(C)c2cc1C(=O)N1CCS(=O)(=O)CC1 [Example 4, (R)-3-(1-((6-(1,1-dioxothiomorpholine-4-carbonyl)-4-methyl-7-(methylamino)phthalazin-1-yl)amino)ethyl)-2-methylbenzonitrile]
CNc1cc2c(N[C@H](C)c3cccc(C#N)c3C)nnc(C)c2cc1C(=O)NC1CCOCC1 [Example 5, (R)-1-((1-(3-cyano-2-methylphenyl)ethyl)amino)-4-methyl-7-(methylamino)-N-(tetrahydro-2H-pyran-4-yl)phthalazine-6-carboxamide]
CNc1cc2c(N[C@H](C)c3cccc(C#N)c3C)nnc(C)c2cc1C(=O)N(C)C1CCOCC1 [Example 6, (R)-1-((1-(3-cyano-2-methylphenyl)ethyl)amino)-N,4-dimethyl-7-(methylamino)-N-(tetrahydro-2H-pyran-4-yl)phthalazine-6-carboxamide]
CNc1cc2c(N[C@H](C)c3cccc(C#N)c3C)nnc(C)c2cc1C(=O)N1CC2COCC2C1 (stereo partly drawn) [Example 7, 3-((1R)-1-((6-(hexahydro-1H-furo[3,4-c]pyrrole-5-carbonyl)-4-methyl-7-(methylamino)phthalazin-1-yl)amino)ethyl)-2-methylbenzonitrile]
CNc1cc2c(N[C@H](C)c3cccc(C#N)c3C)nnc(C)c2cc1C(=O)N1CCN(C)CC1 [Example 8, (R)-2-methyl-3-(1-((4-methyl-7-(methylamino)-6-(4-methylpiperazine-1-carbonyl)phthalazin-1-yl)amino)ethyl)benzonitrile]
CNc1cc2c(N[C@H](C)c3cccc(C#N)c3C)nnc(C)c2cc1C(=O)N1CCNCC1 [Example 9, (R)-2-methyl-3-(1-((4-methyl-7-(methylamino)-6-(piperazine-1-carbonyl)phthalazin-1-yl)amino)ethyl)benzonitrile]
CNc1cc2c(N[C@H](C)c3cccc(C#N)c3C)nnc(C)c2cc1C(=O)N1CCC(F)(F)CC1 [Example 10, (R)-3-(1-((6-(4,4-difluoropiperidin-1-carbonyl)-4-methyl-7-(methylamino)phthalazin-1-yl)amino)ethyl)-2-methylbenzonitrile]
CNc1cc2c(N[C@H](C)c3cccc(C#N)c3C)nnc(C)c2cc1C(=O)N1CC2(COC2)C1 [Example 11, (R)-2-methyl-3-(1-((4-methyl-7-(methylamino)-6-(2-oxa-6-azaspiro[3.3]heptane-6-carbonyl)phthalazin-1-yl)amino)ethyl)benzonitrile]
CCN1CCN(C(=O)c2cc3c(C)nnc(N[C@H](C)c4cccc(C#N)c4C)c3cc2NC)CC1 [Example 12, (R)-3-(1-((6-(4-ethylpiperazine-1-carbonyl)-4-methyl-7-(methylamino)phthalazin-1-yl)amino)ethyl)-2-methylbenzonitrile]
CNc1cc2c(N[C@H](C)c3cccc(C#N)c3C)nnc(C)c2cc1C(=O)N1CCN(C2CC2)CC1 [Example 13, (R)-3-(1-((6-(4-cyclopropylpiperazine-1-carbonyl)-4-methyl-7-(methylamino)phthalazin-1-yl)amino)ethyl)-2-methylbenzonitrile]
CNc1cc2c(N[C@H](C)c3cccc(C#N)c3C)nnc(C)c2cc1C(=O)N1CCCC1 [Example 14, (R)-2-methyl-3-(1-((4-methyl-7-(methylamino)-6-(pyrrolidine-1-carbonyl)phthalazin-1-yl)amino)ethyl)benzonitrile]
CNc1cc2c(N[C@H](C)c3cccc(C#N)c3C)nnc(C)c2cc1C(=O)N1CCCCC1 [Example 15, (R)-2-methyl-3-(1-((4-methyl-7-(methylamino)-6-(piperidine-1-carbonyl)phthalazin-1-yl)amino)ethyl)benzonitrile]
CNc1cc2c(N[C@H](C)c3cccc(C#N)c3C)nnc(C)c2cc1C(=O)N1CCC1 [Example 16, (R)-3-(1-((6-(azetidine-1-carbonyl)-4-methyl-7-(methylamino)phthalazin-1-yl)amino)ethyl)-2-methylbenzonitrile]
CNc1cc2c(N[C@H](C)c3cccc(C#N)c3C)nnc(C)c2cc1C(=O)N1CC(F)C1 [Example 17, (R)-3-(1-((6-(3-fluoroazetidine-1-carbonyl)-4-methyl-7-(methylamino)phthalazin-1-yl)amino)ethyl)-2-methylbenzonitrile]
CNc1cc2c(N[C@H](C)c3cccc(C#N)c3C)nnc(C)c2cc1C(=O)N1CCC2(CC2)C1 [Example 18, (R)-2-methyl-3-(1-((4-methyl-7-(methylamino)-6-(5-azaspiro[2.4]heptane-5-carbonyl)phthalazin-1-yl)amino)ethyl)benzonitrile]
CNc1cc2c(N[C@H](C)c3cccc(C#N)c3C)nnc(C)c2cc1C(=O)N1CC2CC1CO2 (stereo partly drawn) [Example 19, 3-((1R)-1-((6-(2-oxa-5-azabicyclo[2.2.1]heptane-5-carbonyl)-4-methyl-7-(methylamino)phthalazin-1-yl)amino)ethyl)-2-methylbenzonitrile]
CNc1cc2c(N[C@H](C)c3cccc(C#N)c3C)nnc(C)c2cc1C(=O)N1CCN(C2CCCCC2)CC1 [Example 20, (R)-3-(1-((6-(4-cyclohexylpiperazine-1-carbonyl)-4-methyl-7-(methylamino)phthalazin-1-yl)amino)ethyl)-2-methylbenzonitrile]
CNc1cc2c(N[C@H](C)c3cccc(C#N)c3C)nnc(C)c2cc1C(=O)N1CCN(C(C)C)CC1 [Example 21, (R)-3-(1-((6-(4-isopropylpiperazine-1-carbonyl)-4-methyl-7-(methylamino)phthalazin-1-yl)amino)ethyl)-2-methylbenzonitrile]
CNc1cc2c(N[C@H](C)c3cccc(C#N)c3C)nnc(C)c2cc1C(=O)N1CCC(N2CCOCC2)CC1 [Example 22, (R)-2-methyl-3-(1-((4-methyl-7-(methylamino)-6-(4-morpholinopiperidin-1-carbonyl)phthalazin-1-yl)amino)ethyl)benzonitrile]
CNc1cc2c(N[C@H](C)c3cccc(C#N)c3C)nnc(C)c2cc1C(=O)NCCN1CCOCC1 [Example 23, (R)-1-((1-(3-cyano-2-methylphenyl)ethyl)amino)-4-methyl-7-(methylamino)-N-(2-morpholinoethyl)phthalazine-6-carboxamide]
CNc1cc2c(N[C@H](C)c3cccc(C#N)c3C)nnc(C)c2cc1C(=O)N1CCCOCC1 [Example 24, (R)-2-methyl-3-(1-((4-methyl-7-(methylamino)-6-(1,4-oxazepane-4-carbonyl)phthalazin-1-yl)amino)ethyl)benzonitrile]
